Assay results published in patent US4154967A, “Process for preparation of phenols” (Mitsui Petrochemical Industries, Ltd., priority 1976, dated 1979).

test: physchem; conditions: ethanol-water

| pKa | SMILES |
| --- | --- |
| 6.8 | Sc1cccc(Br)c1 [meta-bromophenyl mercaptan] |
| 5.9 | CC(=O)c1ccc(S)cc1 [para-acetyl phenyl mercaptan] |
| 5.8 | Sc1cc(Cl)cc(Cl)c1 [3,5-dichlorophenyl mercaptan] |
| 6.2 | FC(F)(F)c1cc(S)ccc1Cl [3-trifluoromethyl-4-chlorophenyl mercaptan] |
| 5.9 | O=[N+]([O-])c1cccc(S)c1 [meta-nitrophenyl mercaptan] |
| 5.9 | O=S(=O)(O)c1cccc(S)c1 [meta-mercaptobenzenesulfonic acid] |
| 6 | FC(F)(F)c1ccc(Cl)c(S)c1 [2-chloro-5-trifluoromethylphenyl mercaptan] |
| 5.6 | CS(=O)(=O)c1ccc(S)cc1 [para-methylsulfonylphenyl mercaptan] |
| 6.9 | Sc1ccc(I)cc1 [para-iodophenyl mercaptan] |
| 6.7 | Sc1cccc(Cl)c1 [meta-chlorophenyl mercaptan] |
| 7.5 | Fc1ccc(S)cc1 [para-fluorophenyl mercaptan] |
| 6.8 | Sc1cccc(I)c1 [meta-iodophenyl mercaptan] |
| 6.3 | O=C(S)c1ccccc1 [thiobenzoic acid] |
| 5.9 | CS(=O)(=O)c1cccc(S)c1 [meta-methylsulfonylphenyl mercaptan] |
| 6 | N#Cc1ccc(S)cc1 [para-cyanophenyl mercaptan] |
| 7 | Sc1ccc(Br)cc1 [para-bromophenyl mercaptan] |
| 5.9 | O=C(O)c1ccc(S)cc1 [para-carboxyphenyl mercaptan] |
| 6.8 | Fc1cccc(S)c1 [meta-fluorophenyl mercaptan] |
| 6.3 | N#Cc1cccc(S)c1 [meta-cyanophenyl mercaptan] |
| 6.9 | CC(=O)c1cccc(S)c1 [meta-acetyl phenyl mercaptan] |
| 6.2 | Sc1ccc(Cl)c(Cl)c1 [3,4-dichlorophenyl mercaptan] |
| 5.7 | O=S(=O)(O)c1ccc(S)cc1 [para-mercaptobenzenesulfonic acid] |

| SMILES | pKa |
| --- | --- |
| O=C(O)c1ccccc1S [orthocarboxyphenyl mercaptan] | 5.6 |
| Sc1ccc(Cl)cc1 [para-chlorophenyl mercaptan] | 7 |
| Sc1cc(Cl)c(Cl)cc1Cl [2,4,5-trichlorophenyl mercaptan] | 4.2 |
| Fc1c(F)c(F)c(S)c(F)c1F [pentafluorophenyl mercaptan] | 2.7 |
| O=[N+]([O-])c1ccc(S)c([N+](=O)[O-])c1 [2,4-dinitrophenyl mercaptan] | 4 |
| Sc1c(Cl)c(Cl)c(Cl)c(Cl)c1Cl [pentachlorophenyl mercaptan] | 3.5 |
